According to paper PMC4167715 (Biochemistry, 2013):

What was measured:
[1] = target: E. coli class II fructose 1,6-bisphosphate aldolase (EcFBA) (Escherichia coli, UniProt P0AB71); experiment: coupled fluorescence FBP cleavage assay, single concentration; type: biochemical; settings: read-out: % inhibition at 25 μM
[2] = target: M. tuberculosis class II fructose 1,6-bisphosphate aldolase (MtFBA) (Mycobacterium tuberculosis, UniProt P9WQA3); experiment: X-ray crystal structure; type: binding
[3] = target: S. aureus class II fructose 1,6-bisphosphate aldolase (SaFBA) (Staphylococcus aureus, UniProt Q5HE75); experiment: biochemical; settings: read-out: % inhibition at 25 μM
S. aureus class II fructose 1,6-bisphosphate aldolase (SaFBA), sequence (Q5HE75 whole entry): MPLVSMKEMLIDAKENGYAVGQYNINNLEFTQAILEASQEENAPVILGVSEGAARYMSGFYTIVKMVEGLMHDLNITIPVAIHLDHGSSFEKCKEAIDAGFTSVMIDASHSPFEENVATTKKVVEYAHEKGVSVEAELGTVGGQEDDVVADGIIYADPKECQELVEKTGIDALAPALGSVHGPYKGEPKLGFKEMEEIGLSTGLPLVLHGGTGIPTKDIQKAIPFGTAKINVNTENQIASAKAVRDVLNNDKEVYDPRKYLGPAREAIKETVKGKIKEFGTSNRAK

M. tuberculosis class II fructose 1,6-bisphosphate aldolase (MtFBA), sequence (P9WQA3 whole entry): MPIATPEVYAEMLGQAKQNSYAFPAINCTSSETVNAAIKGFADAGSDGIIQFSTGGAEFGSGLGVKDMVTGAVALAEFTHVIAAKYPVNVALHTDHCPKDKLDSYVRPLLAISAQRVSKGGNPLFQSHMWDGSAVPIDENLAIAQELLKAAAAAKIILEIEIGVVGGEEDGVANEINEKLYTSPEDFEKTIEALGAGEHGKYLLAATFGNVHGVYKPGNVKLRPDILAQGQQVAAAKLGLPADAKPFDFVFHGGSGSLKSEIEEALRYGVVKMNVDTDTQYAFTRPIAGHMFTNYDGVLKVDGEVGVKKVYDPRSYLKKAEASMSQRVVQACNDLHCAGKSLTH
E. coli class II fructose 1,6-bisphosphate aldolase (EcFBA), sequence (P0AB71 2-359): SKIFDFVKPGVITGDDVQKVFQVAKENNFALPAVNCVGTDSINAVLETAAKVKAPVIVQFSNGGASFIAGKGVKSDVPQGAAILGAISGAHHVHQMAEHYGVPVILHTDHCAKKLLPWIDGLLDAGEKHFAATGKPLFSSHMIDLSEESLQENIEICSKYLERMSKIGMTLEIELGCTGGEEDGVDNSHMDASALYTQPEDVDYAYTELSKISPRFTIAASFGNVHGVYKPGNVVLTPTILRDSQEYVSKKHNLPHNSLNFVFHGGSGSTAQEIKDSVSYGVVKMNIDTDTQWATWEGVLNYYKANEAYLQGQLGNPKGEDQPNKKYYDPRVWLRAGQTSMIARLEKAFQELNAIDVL

Work on `O=C(O)c1ccc2cccc(O)c2n1` [HCA, 8-hydroxyquinoline-2-carboxylic acid] yielded an inhibition at 25 µM [1] of 42.2 ± 2.8%, a Kd [2] of 70.8 ± 2.7 µM and an inhibition at 25 µM [3] of 64.3 ± 0.6%.
